Reference: patent US20120270237A9, “METHODS FOR THE IDENTIFICATION OF KINASE INTERACTING MOLECULES AND FOR THE PURIFICATION OF KINASE PROTEINS” (Cellzone AG, priority 2009, published 2012)

Assays:
Experiment in all cases: Kinobeads competition binding, HL60 cell lysate
Conditions in all cases: 10 μM free compound
CDK10 = target: T1, CDK10 (Homo sapiens, UniProt Q15131)
T1 construct: endogenous in cells; host or cells: HL60 cells
Protocol: (§1) To one aliquot of cell lysate 10 μM of the free compound (FIG. 3, CZC31326) was added and allowed to bind to proteins in the lysate. Then the affinity matrix with the immobilized compound (Example 1) was added to capture proteins that were not interacting with the previously added free compound. Beads were separated from the lysate and bead bound proteins were eluted in SDS sample buffer and subsequently separated by SDS-Polyacrylamide gel electrophoresis (FIG. 4). Suitable gel bands were cut out and subjected to in-gel proteolytic digestion with trypsin. The second lysate aliquot was processed identically, however no free compound was added (DMSO solvent control). Peptides originating from samples 1 and 2 were labeled with iTRAQ reagents (iTRAQ 114 and iTRAQ 117) and the combined samples were analyzed with a nano-flow liquid chromatography system coupled online to a tandem mass spectrometer (LC-MS/MS) experiment followed by iTRAQ reporter ion quantification in the MS/MS spectra (Ross et al., 2004. Mol. Cell. Proteomics 3(12):1154-1169). Further experimental protocols can be found in WO2006/134056 and a previous publication (Bantscheff et al., 2007. Nature Biotechnology 25, 1035-1044). Sepharose-beads with the immobilized compound (100 μl beads per pull-down experiment) were equilibrated in lysis buffer and incubated with a cell lysate sample containing 50 mg of protein on an end-over-end shaker (Roto Shake Genie, Scientific Industries Inc.) for 2 hours at 4° C. Beads were collected, transferred to Mobicol-columns (MoBiTech 10055) and washed with 10 ml lysis buffer containing 0.4% NP40 detergent, followed by 5 ml lysis buffer containing 0.2% detergent. To elute bound proteins, 60 μl 2×SDS sample buffer was added to the column. The column was incubated for 30 minutes at 50° C. and the eluate was transferred to a siliconized microfuge tube by centrifugation. Proteins were then alkylated with 108 mM iodoacetamid. Proteins were then separated by SDS-Polyacrylamide electrophoresis (SDS-PAGE). The peptide extracts of samples treated with 10 μM of free compound (CZC31326) and the solvent control (0.5% DMSO) were treated with different variants of the isobaric tagging reagent (iTRAQ Reagents Multiplex Kit, part number 4352135, Applied Biosystems, Foster City, Calif., USA). The iTRAQ reagents are a set of multiplexed, amine-specific, stable isotope reagents that can label peptides on amino groups in up to four different biological samples enabling simultaneous identification and quantitation of peptides. The iTRAQ reagents were used according to instructions provided by the manufacturer. The samples were resuspended in 10 μl 50 mM TEAB solution, pH 8.5 and 10 μl ethanol were added. The iTRAQ reagent was dissolved in 120 μl ethanol and 10 μl of reagent solution were added to the sample. The labeling reaction was performed at room temperature for one hour on a horizontal shaker and stopped by adding 5 μl of 100 mM TEAB and 100 mM glycine in water. The two labeled sampled were then combined, dried in a vacuum centrifuge and resuspended in 10 μl of 0.1% formic acid in water. Relative protein quantitation was performed using peak areas of iTRAQ reporter ion signals essentially as described in an earlier publication (Bantscheff et al., 2007. Nature Biotechnology 25, 1035-1044).

CLK1 = target: T2, CLK1 (Homo sapiens, UniProt P49759)
T2 construct: endogenous in cells; host or cells: HL60 cells
Protocol: as §1

CRK7 = target: T3, CRK7 (Homo sapiens, UniProt Q9NYV4)
T3 construct: endogenous in cells; host or cells: HL60 (DSMZ ACC3)
Protocol: as §1

DYRKIA = target: T4, DYRKIA (Homo sapiens, UniProt Q13627)
T4 construct: endogenous in cells; host or cells: HL60 (DSMZ ACC3)
Protocol: as §1

EphB6 = target: T5, EphB6 (Homo sapiens, UniProt O15197)
T5 construct: endogenous in cells; host or cells: HL60 (DSMZ ACC3)
Protocol: as §1

KHS1 = target: T6, KHS1 (Homo sapiens, UniProt Q9Y4K4)
T6 construct: Identified kinases with CZC31326 from HL60 lysate; endogenous in cells; host or cells: HL60
Protocol: as §1

LCK = target: T7, LCK (Homo sapiens, UniProt P06239)
T7 construct: Identified kinases with CZC31326 from HL60 lysate; endogenous in cells; host or cells: HL60
Protocol: as §1

MST4 = target: T8, MST4 (Homo sapiens, UniProt Q9P289)
T8 construct: endogenous in cells; host or cells: HL60
Protocol: as §1

PKCb = target: T9, PKCb (Homo sapiens, UniProt P05771)
T9 construct: endogenous in cells; host or cells: HL60
Protocol: as §1

TEC = target: T10, TEC (Homo sapiens, UniProt P42680)
T10 sequence (P42680 1-631): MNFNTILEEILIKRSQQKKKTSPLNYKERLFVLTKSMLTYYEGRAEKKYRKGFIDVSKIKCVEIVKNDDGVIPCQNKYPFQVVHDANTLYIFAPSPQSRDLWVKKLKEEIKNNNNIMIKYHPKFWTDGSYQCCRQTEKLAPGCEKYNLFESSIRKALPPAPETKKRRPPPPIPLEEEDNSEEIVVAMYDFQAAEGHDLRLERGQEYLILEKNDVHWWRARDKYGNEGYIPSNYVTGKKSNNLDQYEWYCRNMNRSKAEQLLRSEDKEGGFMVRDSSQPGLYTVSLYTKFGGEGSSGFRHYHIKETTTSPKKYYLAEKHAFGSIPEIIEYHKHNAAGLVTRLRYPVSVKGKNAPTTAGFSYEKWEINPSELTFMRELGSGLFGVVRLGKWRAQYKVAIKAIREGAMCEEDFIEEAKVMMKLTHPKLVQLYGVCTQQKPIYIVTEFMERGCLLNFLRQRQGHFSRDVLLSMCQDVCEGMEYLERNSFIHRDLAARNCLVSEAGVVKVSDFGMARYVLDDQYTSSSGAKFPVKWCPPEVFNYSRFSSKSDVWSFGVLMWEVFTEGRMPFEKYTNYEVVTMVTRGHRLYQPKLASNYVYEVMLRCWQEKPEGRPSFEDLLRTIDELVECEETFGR
Protocol: as §1

T8 sequence (Q9P289 whole entry): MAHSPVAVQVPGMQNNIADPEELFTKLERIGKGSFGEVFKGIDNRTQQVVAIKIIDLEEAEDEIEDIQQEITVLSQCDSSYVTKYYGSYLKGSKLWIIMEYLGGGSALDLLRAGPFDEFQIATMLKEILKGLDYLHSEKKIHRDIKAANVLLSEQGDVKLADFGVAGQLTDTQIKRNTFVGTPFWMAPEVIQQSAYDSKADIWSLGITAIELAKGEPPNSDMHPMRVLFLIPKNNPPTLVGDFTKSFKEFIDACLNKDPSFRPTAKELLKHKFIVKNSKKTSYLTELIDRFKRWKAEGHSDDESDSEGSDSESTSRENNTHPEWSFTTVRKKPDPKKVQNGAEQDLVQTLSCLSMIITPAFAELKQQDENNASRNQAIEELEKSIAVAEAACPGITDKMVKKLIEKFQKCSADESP
T7 sequence (P06239 whole entry): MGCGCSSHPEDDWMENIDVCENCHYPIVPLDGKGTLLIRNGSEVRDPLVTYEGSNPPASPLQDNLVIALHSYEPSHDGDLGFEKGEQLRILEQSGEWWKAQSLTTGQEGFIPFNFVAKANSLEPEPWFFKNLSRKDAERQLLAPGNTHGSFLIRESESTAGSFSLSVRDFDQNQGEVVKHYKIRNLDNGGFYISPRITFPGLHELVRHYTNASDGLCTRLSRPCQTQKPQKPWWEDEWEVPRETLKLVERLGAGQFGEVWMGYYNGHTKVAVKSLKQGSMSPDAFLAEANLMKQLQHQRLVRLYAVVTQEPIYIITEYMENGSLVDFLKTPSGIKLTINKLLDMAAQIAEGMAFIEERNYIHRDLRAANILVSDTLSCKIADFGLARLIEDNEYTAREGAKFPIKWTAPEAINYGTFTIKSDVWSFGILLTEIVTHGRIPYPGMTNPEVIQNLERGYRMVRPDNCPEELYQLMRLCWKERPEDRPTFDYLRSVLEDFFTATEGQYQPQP
T6 sequence (Q9Y4K4 whole entry): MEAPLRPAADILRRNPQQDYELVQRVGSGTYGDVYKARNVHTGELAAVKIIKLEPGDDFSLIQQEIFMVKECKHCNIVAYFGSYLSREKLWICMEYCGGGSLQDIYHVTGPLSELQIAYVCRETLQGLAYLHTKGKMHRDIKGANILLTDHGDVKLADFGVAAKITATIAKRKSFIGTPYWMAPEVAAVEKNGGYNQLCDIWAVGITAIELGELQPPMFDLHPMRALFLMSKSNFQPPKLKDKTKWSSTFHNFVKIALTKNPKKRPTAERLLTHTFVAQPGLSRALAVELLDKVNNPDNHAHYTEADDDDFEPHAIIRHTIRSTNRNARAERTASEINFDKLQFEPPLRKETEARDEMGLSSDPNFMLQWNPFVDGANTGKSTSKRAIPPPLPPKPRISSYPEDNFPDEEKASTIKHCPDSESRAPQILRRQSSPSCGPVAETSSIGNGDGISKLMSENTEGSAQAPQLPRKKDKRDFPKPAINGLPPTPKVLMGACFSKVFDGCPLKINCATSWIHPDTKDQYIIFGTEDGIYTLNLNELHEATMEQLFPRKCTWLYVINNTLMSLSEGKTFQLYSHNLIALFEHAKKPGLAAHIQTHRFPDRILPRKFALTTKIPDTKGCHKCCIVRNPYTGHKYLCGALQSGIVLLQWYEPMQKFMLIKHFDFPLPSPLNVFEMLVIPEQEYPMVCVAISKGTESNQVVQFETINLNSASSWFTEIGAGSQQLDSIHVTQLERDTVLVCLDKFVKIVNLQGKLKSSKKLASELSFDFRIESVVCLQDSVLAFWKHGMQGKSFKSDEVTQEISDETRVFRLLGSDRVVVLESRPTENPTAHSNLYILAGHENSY
T1 sequence (Q15131 whole entry): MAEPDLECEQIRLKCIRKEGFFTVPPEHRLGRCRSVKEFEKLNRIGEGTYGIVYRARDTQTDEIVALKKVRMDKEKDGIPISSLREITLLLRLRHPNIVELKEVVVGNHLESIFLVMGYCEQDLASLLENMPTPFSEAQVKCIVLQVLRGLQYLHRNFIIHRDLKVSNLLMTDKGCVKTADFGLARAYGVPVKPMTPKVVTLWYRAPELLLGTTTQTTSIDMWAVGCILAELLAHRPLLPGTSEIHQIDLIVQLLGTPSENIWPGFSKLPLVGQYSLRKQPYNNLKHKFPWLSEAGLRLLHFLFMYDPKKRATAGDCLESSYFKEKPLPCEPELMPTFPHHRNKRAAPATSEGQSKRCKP
T9 sequence (P05771 whole entry): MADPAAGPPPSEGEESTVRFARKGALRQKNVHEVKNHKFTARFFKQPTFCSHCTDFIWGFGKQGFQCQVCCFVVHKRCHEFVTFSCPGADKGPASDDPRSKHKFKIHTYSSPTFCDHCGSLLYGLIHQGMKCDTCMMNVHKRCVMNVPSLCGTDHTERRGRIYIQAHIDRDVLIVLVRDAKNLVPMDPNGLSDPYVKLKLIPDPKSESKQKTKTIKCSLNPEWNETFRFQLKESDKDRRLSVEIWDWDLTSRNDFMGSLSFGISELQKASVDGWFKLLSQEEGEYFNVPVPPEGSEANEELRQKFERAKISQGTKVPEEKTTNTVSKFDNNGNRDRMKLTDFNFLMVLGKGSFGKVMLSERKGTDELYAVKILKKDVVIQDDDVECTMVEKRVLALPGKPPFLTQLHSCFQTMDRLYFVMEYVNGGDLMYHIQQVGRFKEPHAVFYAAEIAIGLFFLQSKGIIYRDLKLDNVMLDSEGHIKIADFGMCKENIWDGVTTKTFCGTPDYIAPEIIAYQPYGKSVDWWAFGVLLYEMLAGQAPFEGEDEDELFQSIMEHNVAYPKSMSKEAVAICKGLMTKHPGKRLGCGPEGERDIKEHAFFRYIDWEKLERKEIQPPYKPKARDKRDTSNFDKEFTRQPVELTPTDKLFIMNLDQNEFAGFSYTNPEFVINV
T2 sequence (P49759 whole entry): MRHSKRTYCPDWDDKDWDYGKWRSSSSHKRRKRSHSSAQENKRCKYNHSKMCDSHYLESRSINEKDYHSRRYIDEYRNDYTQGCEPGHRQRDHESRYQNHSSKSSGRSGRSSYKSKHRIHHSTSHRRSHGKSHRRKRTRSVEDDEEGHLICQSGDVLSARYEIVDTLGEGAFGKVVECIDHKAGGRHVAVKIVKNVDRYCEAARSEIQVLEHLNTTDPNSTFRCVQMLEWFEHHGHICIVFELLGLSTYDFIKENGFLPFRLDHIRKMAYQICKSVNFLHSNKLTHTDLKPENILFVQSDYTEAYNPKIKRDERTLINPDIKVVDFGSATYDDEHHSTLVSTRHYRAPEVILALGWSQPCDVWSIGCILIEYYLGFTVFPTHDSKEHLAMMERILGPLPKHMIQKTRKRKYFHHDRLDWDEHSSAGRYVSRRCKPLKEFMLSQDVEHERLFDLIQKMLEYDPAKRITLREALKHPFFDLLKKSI
T5 sequence (O15197 32-1021): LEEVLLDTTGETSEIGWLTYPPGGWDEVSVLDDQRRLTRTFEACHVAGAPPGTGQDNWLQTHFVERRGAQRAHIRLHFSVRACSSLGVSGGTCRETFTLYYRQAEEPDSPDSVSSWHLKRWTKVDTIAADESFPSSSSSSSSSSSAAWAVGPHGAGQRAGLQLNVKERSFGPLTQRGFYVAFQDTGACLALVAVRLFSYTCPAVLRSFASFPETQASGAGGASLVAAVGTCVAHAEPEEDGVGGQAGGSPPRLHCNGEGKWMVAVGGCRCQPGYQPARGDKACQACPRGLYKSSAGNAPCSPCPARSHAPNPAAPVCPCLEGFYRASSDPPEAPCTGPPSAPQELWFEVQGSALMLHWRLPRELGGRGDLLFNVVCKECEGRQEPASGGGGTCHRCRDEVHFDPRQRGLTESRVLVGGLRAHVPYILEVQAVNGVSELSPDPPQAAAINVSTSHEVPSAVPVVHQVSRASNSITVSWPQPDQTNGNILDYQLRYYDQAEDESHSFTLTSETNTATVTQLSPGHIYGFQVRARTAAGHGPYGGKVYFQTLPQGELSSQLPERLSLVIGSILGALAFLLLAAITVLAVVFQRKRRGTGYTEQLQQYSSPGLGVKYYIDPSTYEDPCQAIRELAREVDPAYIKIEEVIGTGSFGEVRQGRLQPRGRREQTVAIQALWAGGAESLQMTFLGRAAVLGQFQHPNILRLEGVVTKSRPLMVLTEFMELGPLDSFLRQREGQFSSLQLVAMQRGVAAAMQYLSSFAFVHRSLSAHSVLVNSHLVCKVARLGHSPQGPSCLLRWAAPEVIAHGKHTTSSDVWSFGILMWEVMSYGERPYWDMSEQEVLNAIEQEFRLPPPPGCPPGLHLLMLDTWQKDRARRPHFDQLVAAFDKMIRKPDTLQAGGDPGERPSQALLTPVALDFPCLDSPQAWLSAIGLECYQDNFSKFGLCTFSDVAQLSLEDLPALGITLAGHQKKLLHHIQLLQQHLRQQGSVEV

Structure (SMILES): CS(=O)(=O)Nc1ccccc1Nc1nc(Nc2cccc(OCCN)c2)ncc1Cl [CZC31326, N-(2-(2-(3-(2-aminoethoxy)phenylamino)-5-chloropyrimidin-4-ylamino)phenyl)methanesulfonamide]
- inhibition at 10 µM (CDK10): 96.7%
- inhibition at 10 µM (CLK1): 97.4%
- Competition % (CRK7): 92.1%
- inhibition at 10 µM (DYRKIA): 96.1%
- inhibition at 10 µM (EphB6): 93.6%
- inhibition at 10 µM (KHS1): 93.2%
- inhibition at 10 µM (LCK): 86.8%
- inhibition at 10 µM (MST4): 96.1%
- inhibition at 10 µM (PKCb): 97.3%
- inhibition at 10 µM (TEC): 97%
